The source of these data is ChEMBL document CHEMBL3988442, “University of Dundee, Small-Polar-MMV Screening Library” (2021).

This test has as its system Plasmodium falciparum. As to the kind of experiment: Calibr Malaria Delayed Death Assay SOP. To be noted: for IC50: Plasmodium falciparum. The test is classed as functional, organism-based.

The structures appear in SMILES notation. Several values for one entry are separate records, joined by “and”; a condition that tells them apart may be missing. Equal values may be shown once.

For orientation: pIC50 means −log10 of the IC50, conventionally taken in molar units. What is called IC50 is the concentration needed to halve the response being measured. A higher IC50 goes with weaker potency in that assay. On to `Cc1ccc(OC2(C(=O)N(C)Cc3ccoc3)CCNCC2)cc1`, for which the negative logarithm of the IC50 (pIC50) is listed as 6.094 and the IC50 is 701 nM.

Molecule `CN(Cc1ncc[nH]1)c1nc(-c2ccccn2)nc2c1CCNCC2` showed a negative-log IC50 (pIC50) of 6.511 and an IC50 of 292 nM.

Regarding `Cl.OC1(c2ccc(F)cc2)CCN(Cc2ccccc2N2CCCC2)CC1`, the negative-log IC50 (pIC50) was 5.924 and the half-inhibitory concentration (IC50) is 850 nM.

Molecule `Oc1ccc(Cl)cc1CNCc1ccccc1C(F)(F)F` gave a pIC50 of 6.047 and a half-maximal inhibitory concentration (IC50) of 1080 nM.

Turning to `Cn1cc(CN2CCCC(CCc3ccc(F)cc3)C2)cn1` (stereo unspecified), the pIC50 stood at 5.962 and the midpoint of inhibition, the IC50, lay at 1060 nM.

Molecule `Cc1cc(Br)cnc1NCCN1CCC(N(C)C)CC1` gave a negative logarithm of the IC50 (pIC50) of 6.294 and a half-inhibitory concentration (IC50) of 472 nM.

`CCC(CNC(=O)CNC(C)=O)Oc1cccc(F)c1` (stereo unspecified): the negative-log IC50 (pIC50) stood at 5.937 and the IC50 was 1020 nM.

As for `c1ccn2c(C3CCCN(c4ncnc5c4CCNC5)C3)nnc2c1` (stereo unspecified), the negative logarithm of the IC50 (pIC50) was determined as 6.629 and inhibition was half-maximal at 213 nM (IC50).

`CC(C)N1CCC(NCc2cccnc2N(C)Cc2ccccc2)CC1` gave a pIC50 of 6.416 and a concentration for half-maximal inhibition (IC50) of 447 nM.

Regarding `CN1CC[C@H](N(Cc2ccccc2)CC2CC2)C[C@H](O)C1`, the pIC50 is given as 5.964 and the half-inhibitory concentration (IC50) was 1570 nM.

Molecule `Cc1ncc(CN(C)C2CCCN(CCc3ccccc3)C2)n1C` (stereo unspecified) showed a pIC50 of 6.013 and a half-maximal inhibitory concentration (IC50) of 783 nM.

The molecule `O=S(=O)(NCC(c1ccsc1)N1CCCCCC1)c1cccs1` (stereo unspecified) had a negative logarithm of the IC50 (pIC50) of 6.118 and an IC50 of 904 nM.

With `Cc1ccc(CN(Cc2cccnc2)C2CC(C)(C)NC(C)(C)C2)s1.O=C(O)CC(O)(CC(=O)O)C(=O)O`, the negative logarithm of the IC50 (pIC50) is on record as 6.05 and the concentration for half-maximal inhibition (IC50) was 727 nM.

On to `NC1(C(=O)NCC2CCCN(Cc3ccccc3F)C2)CCCC1` (stereo unspecified), for which the pIC50 was 6.224 and the half-maximal inhibitory concentration (IC50) is 470 nM.

For `Cc1ccsc1CN(Cc1cccnc1)C1CC(C)(C)NC(C)(C)C1.O=C(O)CC(O)(CC(=O)O)C(=O)O`, the pIC50 is on record as 6.511 and the IC50 was 290 nM.

`O=C(NCCN1CCCC1)C1(c2ccc(Cl)cc2)CCOCC1` showed a negative logarithm of the IC50 (pIC50) of 6.003 and an IC50 of 714 nM.

On to `COc1c(C)cnc(CN2CCC(N(C)C(C)C(N)=O)CC2)c1C` (stereo unspecified), for which the negative-log IC50 (pIC50) was 6.018 and 876 nM corresponded to half-maximal inhibition (IC50).

In turn, `COc1cccc(CNCc2ccc(F)cc2Cl)c1O` gave a negative logarithm of the IC50 (pIC50) of 6.118 and a 50% inhibitory concentration (IC50) of 712 nM.

For `COc1ccc(Cn2nnnc2SCC2CCCN(C)C2)cc1` (stereo unspecified), the pIC50 is 5.834 and it took 1090 nM to reach half-maximal inhibition (IC50).

With `O=C(Nc1nccs1)C1CCCN1Cc1ccccn1` (stereo unspecified), the pIC50 is recorded as 6.607 and the concentration for half-maximal inhibition (IC50) is 229 nM.

Molecule `COc1cc(C(=O)NCc2ccc3c(c2)CCCN3C)cc(OC)c1Br` had a pIC50 of 6.846 and a half-inhibitory concentration (IC50) of 251 nM.

On to `CC(NCC1CCN(CCO)CC1)c1ccc(Cl)cc1` (stereo unspecified), for which the negative logarithm of the IC50 (pIC50) was 6.133 and the IC50 was 671 nM.

On to `Cc1cc(-n2cccn2)ccc1CN1CCOCC(CN(C)C)C1` (stereo unspecified), for which the pIC50 was determined as 6.139 and the IC50 is 673 nM.

`CC(=O)N(c1ccc(C)cc1)c1nc(CN2CCCC(C)C2)cs1` (stereo unspecified) gave a pIC50 of 5.762 and a half-maximal inhibitory concentration (IC50) of 1610 nM.

Molecule `Fc1cnc(N2CCCC3(CCN(Cc4ccoc4)C3)C2)nc1.O=C(O)C(F)(F)F.O=C(O)C(F)(F)F` (stereo unspecified) gave a pIC50 of 5.93 and a 50% inhibitory concentration (IC50) of 1210 nM.

Take `Fc1ccccc1C1(CNC2CCOC3(CCOCC3)C2)CCCC1` (stereo unspecified): the negative logarithm of the IC50 (pIC50) stood at 6.12 and 796 nM corresponded to half-maximal inhibition (IC50).

Consider `Cc1ccc(CNC2CC3(CCN(CCO)CC3)c3ccccc32)s1.O=C(O)C(F)(F)F.O=C(O)C(F)(F)F` (stereo unspecified), for which the pIC50 turned out to be 6.464 and half-maximal inhibition (IC50) was put at 322 nM.

Molecule `Brc1cccc(C2(CNCc3cc[nH]c3)CCOCC2)c1` gave a negative-log IC50 (pIC50) of 6.135 and a half-inhibitory concentration (IC50) of 829 nM.

In the case of `COc1cc(CNCC(O)c2ccc(F)c(F)c2)cc2c1OCO2` (stereo unspecified), the negative logarithm of the IC50 (pIC50) is 6.45 and the midpoint of inhibition, the IC50, lay at 460 nM.

`CC(O)c1cccc(Nc2nc(NCCO)c3ccccc3n2)c1` (stereo unspecified) showed a pIC50 of 6.601 and a concentration for half-maximal inhibition (IC50) of 220 nM.

Molecule `CCN(CC)CCN(C)c1nc(-c2ccc(Cl)cc2)nc2c1CNC2` showed a pIC50 of 6.071 and a half-maximal inhibitory concentration (IC50) of 1020 nM.

`CC(N)Cc1ccccc1Sc1ccccc1.O=C(O)/C=C\C(=O)O` (stereo unspecified) had a negative logarithm of the IC50 (pIC50) of 6.082 and an IC50 of 854 nM.

As to `Fc1cnc(N2CCCC3(CCN(Cc4ccsc4)C3)C2)nc1.O=C(O)C(F)(F)F.O=C(O)C(F)(F)F` (stereo unspecified), the negative logarithm of the IC50 (pIC50) was 6.217 and the IC50 was 664 nM.

`CN(Cc1ccco1)C[C@H]1OC[C@@H]2CCN(Cc3ccsc3)C[C@@H]21.O=C(O)C(F)(F)F.O=C(O)C(F)(F)F` gave a pIC50 of 6.029 and an IC50 of 1290 nM.

As for `Nc1cc(-c2c[nH]nc2C2CCCN2CCCc2ccccc2)ccn1` (stereo unspecified), the pIC50 was found to be 6.087 and inhibition was half-maximal at 785 nM (IC50).

Turning to `CN1CCN(Cc2ccccc2Oc2nccc3occc23)CC1`, the negative logarithm of the IC50 (pIC50) was 6.2 and the IC50 is 593 nM.

Regarding `CCN1CCCN(S(=O)(=O)c2cc3ccccc3o2)CC1`, the pIC50 is reported as 6.321 and the IC50 is 532 nM.

`Cc1ncc(CN(Cc2ccccn2)Cc2ccccc2Cl)n1C.O=C(O)CC(O)(CC(=O)O)C(=O)O` showed a negative logarithm of the IC50 (pIC50) of 6.286 and an IC50 of 491 nM.

On to `CC(C)c1nn(C)c(Cl)c1CNCC(O)c1cccc(F)c1.Cl` (stereo unspecified), for which the negative logarithm of the IC50 (pIC50) is 6.252 and 392 nM corresponded to half-maximal inhibition (IC50).

Take `Cc1cc(F)ccc1N1CCC(N2C[C@@H](CN(C)C)[C@@H](CO)C2)CC1`: the pIC50 is given as 6.511 and the IC50 is 314 nM.

Take `c1cc(N2CCC(CN3CCOCC3)CC2)c2sccc2n1`: the negative logarithm of the IC50 (pIC50) was 6.066 and inhibition was half-maximal at 867 nM (IC50).

The molecule `Cc1cc(N2CCC(NC(C)Cc3ccsc3)CC2)nc(C)n1` (stereo unspecified) gave a pIC50 of 6.277 and an IC50 of 508 nM.

Molecule `C[C@@H]1CN(C(=O)C2CCS(=O)(=O)CC2)CC[C@@]1(O)C1CCOCC1` showed a pIC50 of 6.055 and an IC50 of 998 nM.

`O=C(c1scc2c1OCCO2)N1CCOC(CCc2ccccc2)C1` (stereo unspecified): the pIC50 was 6.32 and the IC50 is 386 nM.

On to `Cc1cccc(C)c1Nc1noc2c1CN(C(=O)c1ccnn1C)CC2`, for which the negative logarithm of the IC50 (pIC50) is listed as 6.86 and the IC50 was 142 nM.

In turn, `CO[C@@H]1CCN(Cc2ccoc2)C[C@@H]1Cc1ccccc1.O=C(O)C(F)(F)F` gave a negative logarithm of the IC50 (pIC50) of 5.938 and a concentration for half-maximal inhibition (IC50) of 1080 nM.

`Nc1nc2c(c(N3CCCC(c4nnc5ccccn45)C3)n1)CCNC2` (stereo unspecified) showed a negative-log IC50 (pIC50) of 6.831 and a half-inhibitory concentration (IC50) of 144 nM.

Turning to `COc1cccc(CN(C)Cc2[nH]c3ccccc3c2C)c1O`, the pIC50 is 6.46 and the IC50 was 310 nM.

`CC(C)(C)CNCC1(O)CCCN(Cc2ccccc2F)C1=O` (stereo unspecified) showed a negative-log IC50 (pIC50) of 6.115 and an IC50 of 770 nM.

Molecule `NC(=O)c1cccc2nc([C@H]3CCN(Cc4ccccn4)C3)[nH]c12` showed a pIC50 of 7.592 and an IC50 of 27.5 nM.

In the case of `Cc1cc(CN2CCc3nc(-c4ccncc4)nc(O)c3CC2)c(C)s1`, the pIC50 is 5.926 and 6.258.

With `CN[C@@H](C)C(=O)N(Cc1cccc(C)c1)Cc1ccccc1OC`, the pIC50 turned out to be 6.428 and the IC50 is 316 nM.

Take `CC(C)CNC(=O)C1(Cc2ccccc2-c2cccs2)CCNC1` (stereo unspecified): the pIC50 was determined as 6.092 and the IC50 is 626 nM.

For `COc1cccc(CNCc2ccccc2Cl)c1O`, the pIC50 is reported as 6.206 and the half-maximal inhibitory concentration (IC50) is 677 nM.

`CN(Cc1ncc(C(C)(C)C)o1)CC1CCCN1c1cccnn1` (stereo unspecified) showed a negative-log IC50 (pIC50) of 5.852 and an IC50 of 1620 nM.

The molecule `O=C(O)C(F)(F)F.O=C(O)C(F)(F)F.O=C(O)C(F)(F)F.c1cnn(C[C@@H]2C[C@@H]3CN(CC4CC4)CC[C@@H]3N2c2nccs2)c1` gave a negative-log IC50 (pIC50) of 6.063 and an IC50 of 859 nM.

The molecule `COc1ccccc1C(C)(C)NCc1ccc(C)o1` gave a pIC50 of 5.785 and an IC50 of 1220 nM.

`COc1ccc(N2CCCC3(C2)CN(c2nncs2)CCO3)cc1` (stereo unspecified) gave a pIC50 of 6.845 and a half-maximal inhibitory concentration (IC50) of 173 nM.

As to `CCOc1ccc(Br)cc1C1CCCCN1.Cl` (stereo unspecified), the negative logarithm of the IC50 (pIC50) is 6.053 and the half-maximal inhibitory concentration (IC50) is 737 nM.

`OCCN1CCC(CNCc2ccccc2OC(F)(F)F)CC1` had a pIC50 of 6.066 and a concentration for half-maximal inhibition (IC50) of 770 nM.

`c1cnnc(N2CCCC2CNc2ncnc3sccc23)c1` (stereo unspecified) had a negative logarithm of the IC50 (pIC50) of 5.797 and a half-inhibitory concentration (IC50) of 1260 nM.

With `Cc1cccc(C)c1Nc1noc2c1CN(C(=O)c1ccn(C)n1)CC2`, the negative logarithm of the IC50 (pIC50) is 6.694 and the half-inhibitory concentration (IC50) is 206 nM.

`CC1(C)CN(C(CNC2=NCCN2)c2ccc(Cl)cc2)CCO1.I` (stereo unspecified) gave a pIC50 of 6.344 and an IC50 of 478 nM.

As for `Cc1ccc(CN(Cc2ccccn2)C2CC(C)(C)NC(C)(C)C2)s1.O=C(O)CC(O)(CC(=O)O)C(=O)O`, the negative-log IC50 (pIC50) came to 6.418 and the IC50 was 432 nM.

In turn, `c1cc(-c2n[nH]cc2-c2ccnc(N3CCCC3)n2)ccn1` showed a negative-log IC50 (pIC50) of 7.446 and a 50% inhibitory concentration (IC50) of 30.5 nM.

With `COCCC1(CNC(=O)Nc2ccnc(C)c2)CCCC1`, the negative-log IC50 (pIC50) is 6.054 and half-maximal inhibition (IC50) required 876 nM.

Consider `Cc1cc(C[C@@H]2CCC[C@H]2NCc2c[nH]nc2-c2ccccc2)on1.O=C(O)CC(O)(CC(=O)O)C(=O)O`, for which the pIC50 was 5.845 and the half-inhibitory concentration (IC50) was 1230 nM.

As for `O=C(NC1CCN(CC2CCCC2)C1)N1CCC(OCC2CC2)CC1` (stereo unspecified), the pIC50 is given as 5.978 and half-maximal inhibition (IC50) was put at 966 nM.

In turn, `Cc1cc(CN2CCC(CNS(=O)(=O)c3ccc(Br)s3)CC2)c(C)o1` gave a negative-log IC50 (pIC50) of 6.178 and a concentration for half-maximal inhibition (IC50) of 639 nM.

For the molecule `COc1ccccc1C1(NCc2c(C)nc3c(C)cccn23)CCCC1.Cl`, the pIC50 is 6.178 and the half-inhibitory concentration (IC50) is 748 nM.

`CC(C)Oc1ncnc2c1CCN(Cc1ccco1)CC2.O=C(O)C(F)(F)F`: the negative logarithm of the IC50 (pIC50) was determined as 6.106 and the IC50 is 1020 nM.
